Experiment [1] addresses Human SGLT2 (hSGLT2) (Homo sapiens (Human), UniProt P31639). The experiment is described as follows: Inhibitory effects on human SGLT2 activities (14C-AMG uptake, sodium-dependent glucose transport assay). Type of experiment: cell-based. To be noted: hSGLT2-expressing CHO cells, 37° C. for 2 h, single determinations. In short, it runs like this:
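CHO cells stably expressing hSGLT2 were preincubated 10 min at 37 °C in choline (Na+-free) buffer, then exposed 2 h at 37 °C to compound in Na+ uptake buffer with 8 μM 14C-AMG and 1 mM unlabeled AMG. Radioactivity was scintillation counted; IC50 came from nonlinear regression.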

Experiment [2] addresses Human SGLT1 (hSGLT1) (Homo sapiens (Human), UniProt P13866). As to the kind of experiment: Inhibitory effects on human SGLT1 activities (14C-AMG uptake, sodium-dependent glucose transport assay). Type of experiment: cell-based. To be noted: 37° C. for 2 h, single determinations.

In general, IC50 refers to the concentration that gives 50% inhibition. Higher therefore signals a need for much substance.

Sequence of Human SGLT2 (hSGLT2) (P31639 whole entry): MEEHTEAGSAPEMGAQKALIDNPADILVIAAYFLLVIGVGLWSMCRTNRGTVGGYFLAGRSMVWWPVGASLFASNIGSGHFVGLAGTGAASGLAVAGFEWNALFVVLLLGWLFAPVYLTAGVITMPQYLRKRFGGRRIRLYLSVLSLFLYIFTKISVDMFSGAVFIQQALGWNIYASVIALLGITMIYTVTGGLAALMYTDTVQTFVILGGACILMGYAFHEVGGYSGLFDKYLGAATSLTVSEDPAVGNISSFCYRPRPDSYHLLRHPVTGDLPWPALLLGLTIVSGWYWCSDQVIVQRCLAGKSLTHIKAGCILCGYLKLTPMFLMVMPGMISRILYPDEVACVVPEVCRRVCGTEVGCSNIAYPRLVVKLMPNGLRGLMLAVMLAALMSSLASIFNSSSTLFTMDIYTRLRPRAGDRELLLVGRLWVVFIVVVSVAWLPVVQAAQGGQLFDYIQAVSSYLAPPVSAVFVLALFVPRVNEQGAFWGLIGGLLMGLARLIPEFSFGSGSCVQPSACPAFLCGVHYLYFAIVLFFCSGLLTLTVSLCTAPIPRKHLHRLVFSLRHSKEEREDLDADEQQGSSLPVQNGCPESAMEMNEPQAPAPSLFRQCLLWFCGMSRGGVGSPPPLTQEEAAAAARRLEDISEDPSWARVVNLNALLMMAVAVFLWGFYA
Sequence of Human SGLT1 (hSGLT1) (P13866 whole entry): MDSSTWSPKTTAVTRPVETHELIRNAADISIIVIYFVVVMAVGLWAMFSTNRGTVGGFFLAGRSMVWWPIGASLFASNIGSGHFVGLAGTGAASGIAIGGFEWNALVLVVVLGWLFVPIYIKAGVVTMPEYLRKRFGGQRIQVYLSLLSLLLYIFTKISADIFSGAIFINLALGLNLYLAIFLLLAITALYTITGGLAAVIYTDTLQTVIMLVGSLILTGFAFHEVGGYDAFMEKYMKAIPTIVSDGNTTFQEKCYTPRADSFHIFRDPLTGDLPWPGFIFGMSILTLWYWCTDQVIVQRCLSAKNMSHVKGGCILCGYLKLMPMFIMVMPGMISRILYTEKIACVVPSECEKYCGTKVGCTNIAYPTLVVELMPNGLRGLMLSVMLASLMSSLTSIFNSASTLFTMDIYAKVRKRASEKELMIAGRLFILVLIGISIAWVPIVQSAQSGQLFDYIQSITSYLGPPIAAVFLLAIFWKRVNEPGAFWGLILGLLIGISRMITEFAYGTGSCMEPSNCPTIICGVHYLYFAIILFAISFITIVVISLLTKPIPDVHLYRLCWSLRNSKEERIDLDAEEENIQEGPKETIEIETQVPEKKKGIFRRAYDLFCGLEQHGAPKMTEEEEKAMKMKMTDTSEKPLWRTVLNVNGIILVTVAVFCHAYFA

Take `OC[C@H]1O[C@@H](c2cc(Cc3ccc(C4CC4)cc3)c(Cl)c3c2CCS3)[C@H](O)[C@@H](O)[C@@H]1O` [Compound E060, (2S,3R,4R,5S,6R)-2-(7-Chloro-6-(4-cyclopropylbenzyl)-2,3-dihydrobenzo[b]thiophen-4-yl)-6-(hydroxymethyl)tetrahydro-2H-pyran-3,4,5-triol]: the IC50 in experiment [1] came to 0.67 nM; in experiment [2], 40.9 nM.
As for `Cc1ccc(Cc2cc([C@@H]3O[C@H](CO)[C@@H](O)[C@H](O)[C@H]3O)c3c(c2C)OCO3)cc1` [Compound E061, (2R,3S,4R,5R,6S)-2-(Hydroxymethyl)-6-(7-methyl-6-(4-methylbenzyl)benzo[d][1,3]dioxol-4-yl)tetrahydro-2H-pyran-3,4,5-triol], the IC50 in experiment [1] worked out at 1.7 nM; in experiment [2], 27 nM.
On to `OC[C@H]1O[C@@H](c2cc(Cc3ccc(C4CCC4)cc3)c(Cl)c3c2OCCC3)[C@H](O)[C@@H](O)[C@@H]1O` [Compound E062, (2S,3R,4R,5S,6R)-2-(5-Chloro-6-(4-cyclobutylbenzyl)chroman-8-yl)-6-(hydroxymethyl)tetrahydro-2H-pyran-3,4,5-triol], for which the IC50 in experiment [1] was 1.1 nM; in experiment [2], 163 nM.
Take `COc1ccc(Cc2cc([C@@H]3O[C@H](CO)[C@@H](O)[C@H](O)[C@H]3O)c3c(c2C)OCO3)cc1` [Compound E063, (2R,3S,4R,5R,6S)-2-(Hydroxymethyl)-6-(6-(4-methoxybenzyl)-7-methylbenzo[d][1,3]dioxol-4-yl)tetrahydro-2H-pyran-3,4,5-triol]: the IC50 in experiment [1] was found to be 1.6 nM; in experiment [2], 66.2 nM.
For `CCc1ccc(Cc2cc([C@@H]3O[C@H](CO)[C@@H](O)[C@H](O)[C@H]3O)c3c(c2C)OCO3)cc1` [Compound E064, (2S,3R,4R,5S,6R)-2-(6-(4-Ethylbenzyl)-7-methylbenzo[d][1,3]dioxol-4-yl)-6-(hydroxymethyl)tetrahydro-2H-pyran-3,4,5-triol], in that order: 1.1 nM and 38.3 nM.
In the same order, the values of `CCOc1ccc(Cc2cc([C@@H]3O[C@H](CO)[C@@H](O)[C@H](O)[C@H]3O)c3c(c2C)OCO3)cc1` [Compound E065, (2S,3R,4R,5S,6R)-2-(6-(4-Ethoxybenzyl)-7-methylbenzo[d][1,3]dioxol-4-yl)-6-(hydroxymethyl)tetrahydro-2H-pyran-3,4,5-triol] are 1.6 nM and 155 nM.
